# In patent US9790218B2, “Small molecule activators of calcium-activated chloride channels and methods of use” (The Regents of the University of California, priority 2011, dated 2017):
# Values joined by “and” are separate entries in the source; they are usually repeats but may differ in a detail not shown here. Equal entries are not always repeated.
# Target: T1, TMEM16A (Homo sapiens, UniProt Q5XXA6, DEL476-501)
# T1 construct: expressed in transfected cells
# T1 sequence (Q5XXA6 with tags, fused parts or gaps isoform Q5XXA6-5 DEL539-564): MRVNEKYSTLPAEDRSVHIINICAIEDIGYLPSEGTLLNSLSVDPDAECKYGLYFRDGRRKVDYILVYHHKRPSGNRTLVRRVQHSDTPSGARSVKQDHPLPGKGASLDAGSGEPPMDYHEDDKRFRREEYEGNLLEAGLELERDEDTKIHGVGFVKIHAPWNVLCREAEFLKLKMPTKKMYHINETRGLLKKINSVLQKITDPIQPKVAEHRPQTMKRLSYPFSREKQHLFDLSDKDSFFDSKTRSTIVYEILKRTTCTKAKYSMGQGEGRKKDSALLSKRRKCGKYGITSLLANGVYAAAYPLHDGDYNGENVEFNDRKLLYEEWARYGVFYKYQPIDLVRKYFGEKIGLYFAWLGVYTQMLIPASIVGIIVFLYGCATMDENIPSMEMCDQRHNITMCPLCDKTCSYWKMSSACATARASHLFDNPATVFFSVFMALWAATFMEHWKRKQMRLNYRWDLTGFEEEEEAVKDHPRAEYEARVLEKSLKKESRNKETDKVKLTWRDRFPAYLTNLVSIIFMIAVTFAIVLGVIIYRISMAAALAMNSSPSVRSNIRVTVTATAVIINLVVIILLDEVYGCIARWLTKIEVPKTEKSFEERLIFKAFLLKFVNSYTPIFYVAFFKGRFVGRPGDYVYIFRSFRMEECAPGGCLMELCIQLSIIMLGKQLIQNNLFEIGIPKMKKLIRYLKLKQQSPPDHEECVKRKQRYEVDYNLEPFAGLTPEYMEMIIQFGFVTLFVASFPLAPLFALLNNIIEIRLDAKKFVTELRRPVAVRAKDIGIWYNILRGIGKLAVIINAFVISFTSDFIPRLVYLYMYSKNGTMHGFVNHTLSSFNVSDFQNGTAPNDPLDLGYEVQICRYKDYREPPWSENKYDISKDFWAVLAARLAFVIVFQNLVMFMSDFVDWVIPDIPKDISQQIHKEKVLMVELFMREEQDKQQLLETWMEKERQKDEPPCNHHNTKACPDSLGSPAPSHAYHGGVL
# Test: Apical membrane current in TMEM16A-expressing FRT cells
# Type: cell-based
# Description: FRT cells were stably transfected with human TMEM16A (TMEM16A(abc), cDNA provided by Dr. Luis Galietta, Gaslini Institute, Genoa, Italy) and the halide sensor YFP-H148Q/1152L/F46L. Cells were plated in 96-well black-walled microplates (Corning Inc., Corning, N.Y.) at a density of 20,000 cells per well in Coon's modified F12 medium supplemented with 5% fetal calf serum, 2 mM L-glutamine, 100 U/mL penicillin and 100 μg/mL streptomycin. The human submandibular cell line A253 (ATCC HTB 41) was cultured in complete McCoy's 5A medium supplemented with 10% fetal bovine serum, 100 U/mL penicillin and 100 μg/mL streptomycin.
# Snapwell inserts containing TMEM16A-expressing FRT, HBE, CF HBE or HTG cells were mounted in Ussing chambers (Physiologic Instruments, San Diego, Calif.). Amiloride, CFTRinh-172, UTP, ATP, T16Ainh-A01 and TMEM16A activators were added to the apical solution and an equal volume of vehicle was added at the same time to the basolateral solution. Symmetrical HCO3^−-buffered solutions were used for HBE, CF HBE and HTG cells. For FRT cells, the hemichambers were filled with a half-Cl^− solution (apical) and the HCO3^−-buffered solution (basolateral), and the basolateral membrane was permeabilized with 250 μg/mL amphotericin B, as described (Namkung et al. (2010), supra). Cells were bathed for a 10 min stabilization period and aerated with 95% O2/5% CO2 at 37° C. or room temperature. Apical membrane current (for FRT cells) and short-circuit current were measured using an EVC4000 Multi-Channel V/I Clamp (World Precision Instruments, Sarasota, Fla.) and recorded using PowerLab/8sp (AD Instruments, Castle Hill, Australia).
# The current increase was sustained for >10 min (FIG. 2B, inset). […] Data are also shown for a second Fact compound (Fact9, see Table 1) in FIG. 9.
inhibition of Eact- and Fact-induced Cl^− current (T16Ainh-A01 10 μM),SMILES,TMEM16A current following 1 μM Eact (synergy) (1-3 μM Fact after 1 μM Eact),TMEM16A activation alone (1-3 μM Fact alone),"EC50 (EC50 from concentration-activation data, apical membrane current)",maximal TMEM16A activation compared to ATP effect (apical membrane current),"Cl^− current (apical membrane current) (basolateral membrane permeabilized, Cl^− gradient, ATP 100 μM)"
,"O=C(Nc1ccc(Br)cc1)c1cccc(-n2cnnn2)c1 [Fact, N-(4-bromophenyl)-3-(1H-tetrazol-1-yl)benzamide]",greatly increased TMEM16A current,little TMEM16A activation,3 to 6 µM and ~6 µM,maximal TMEM16A activation,"large, concentration-dependent increases in Cl^− current"
inhibited,"CCc1c(C)nc(SCC(=O)Nc2nc(-c3ccc(OC)cc3)cs2)[nH]c1=O [T16Ainh-A01, reference compound]",,,,,
